{"source": "paper PMC6532548", "about": "“Embelin, a Potent Molecule for Alzheimer's Disease: A Proof of Concept From Blood-Brain Barrier Permeability, Acetylcholinesterase Inhibition and Molecular Docking Studies” (Frontiers in Neuroscience, 2019)", "target": "acetylcholinesterase (AChE) (Electrophorus electricus, UniProt O42275)", "sequence (O42275 24-633)": "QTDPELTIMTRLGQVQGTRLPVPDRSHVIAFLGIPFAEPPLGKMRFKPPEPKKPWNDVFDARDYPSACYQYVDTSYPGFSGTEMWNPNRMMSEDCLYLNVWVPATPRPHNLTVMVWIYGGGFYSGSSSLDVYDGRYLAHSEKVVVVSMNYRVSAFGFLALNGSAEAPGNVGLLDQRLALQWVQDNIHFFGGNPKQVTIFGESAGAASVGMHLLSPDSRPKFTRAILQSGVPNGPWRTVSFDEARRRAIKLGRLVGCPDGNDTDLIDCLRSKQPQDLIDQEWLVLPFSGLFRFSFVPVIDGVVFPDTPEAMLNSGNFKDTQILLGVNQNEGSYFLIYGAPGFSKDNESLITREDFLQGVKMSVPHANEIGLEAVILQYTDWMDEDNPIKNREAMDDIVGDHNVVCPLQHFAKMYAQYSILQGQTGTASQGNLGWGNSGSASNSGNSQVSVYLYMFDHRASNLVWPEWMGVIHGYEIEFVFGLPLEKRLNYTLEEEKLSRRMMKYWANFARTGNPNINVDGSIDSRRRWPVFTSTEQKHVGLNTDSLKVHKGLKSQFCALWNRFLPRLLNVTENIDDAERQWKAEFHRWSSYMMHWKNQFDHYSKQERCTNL", "assay": "Ellman's assay with electric eel AChE, acetylthiocholine iodide substrate", "format": "biochemical", "data": [{"compound": "CCCCCCCCCCCC1=C(O)C(=O)C=C(O)C1=O", "note": "[embelin, 2,5-dihydroxy-3-undecyl-1,4-benzoquinone]", "values": [{"measurement": "IC50", "value": 169, "unit": "µM"}]}]}
